Where a SMILES comes first, the peptide text is derived from it. Bridges are numbered along the chain shown (N, C = ends). [ ]: non-standard residue; d: D form. The star is where a group is joined. Palmitoyl = CCCCCCCCCCCCCCCC(=O)*; Hyp = O=C(O)[C@@H]1C[C@@H](O)CN1; Myristoyl = CCCCCCCCCCCCCC(=O)*; NMeNle = CCCC[C@H](NC)C(=O)O; NMeA = CN[C@@H](C)C(=O)O
Columns and labels:
[1] = target: PD-1-Ig binding to PD-L1-TVMV-His (PD-L1-His) (Homo sapiens (Human), UniProt Q9NZQ7); experiment: PD-1/PD-L1 Homogenous Time-Resolved Fluorescence (HTRF) binding assay; conditions: PD-1-Ig (20 nM)/PD-L1-His (10 nM) binding assay
PD-1-Ig binding to PD-L1-TVMV-His (PD-L1-His), sequence (Q9NZQ7 other isoform, or with tags, fused parts or gaps): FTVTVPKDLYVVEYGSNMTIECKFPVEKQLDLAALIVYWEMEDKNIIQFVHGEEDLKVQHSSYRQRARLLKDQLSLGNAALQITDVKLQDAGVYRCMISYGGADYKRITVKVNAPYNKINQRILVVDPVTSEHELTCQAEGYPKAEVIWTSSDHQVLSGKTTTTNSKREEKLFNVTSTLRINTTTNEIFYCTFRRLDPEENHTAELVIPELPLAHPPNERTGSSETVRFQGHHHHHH
Excerpt: The ability of the macrocyclic peptides of the present disclosure to bind to PD-L1 was investigated using a PD-1/PD-L1 Homogenous Time-Resolved Fluorescence (HTRF) binding assay.
Homogenous Time-Resolved Fluorescence (HTRF) Assays of Binding of Soluble PD-1 to Soluble PD-L1. Soluble PD-1 and soluble PD-L1 refers to proteins with carboxyl-end truncations that remove the transmembrane-spanning regions and are fused to heterologous sequences, specifically the Fc portion of the human immunoglobuling G sequence (Ig) or the hexahistidine epitope tag (His). All binding studies were performed in an HTRF assay buffer consisting of dPBS supplemented with 0.1% (w/v) bovine serum albumin and 0.05% (v/v) Tween-20. For the PD-1-Ig/PD-L1-His binding assay, inhibitors were pre-incubated with PD-L1-His (10 nM final) for 15 m in 4 μl of assay buffer, followed by addition of PD-1-Ig (20 nM final) in 1 μl of assay buffer and further incubation for 15 m. PD-L1 fusion proteins from either human, cynomologous macaques, mouse, or other species were used. HTRF detection was achieved using europium crypate-labeled anti-Ig monoclonal antibody (1 nM final) and allophycocyanin (APC) labeled anti-His monoclonal antibody (20 nM final). Antibodies were diluted in HTRF detection buffer and 5 μl was dispensed on top of binding reaction. […]

[2] = oral administration, extensive first-pass metabolism in the liver; cited from earlier work

Work on `CCCCCCCCCCCCCCCC(=O)NCCCC[C@@H]1NC(=O)[C@H](CCCC)N(C)C(=O)[C@H](CCCC)N(C)C(=O)[C@H](Cc2c[nH]c3ccccc23)NC(=O)[C@H](CO)NC(=O)[C@H](Cc2c[nH]c3ccccc23)NC(=O)[C@@H]2C[C@@H](O)CN2C(=O)[C@H](CC(C)C)NC(=O)[C@H](Cc2cnc[nH]2)NC(=O)[C@@H]2CCCN2C(=O)[C@H](CC(=O)O)NC(=O)[C@H](C)N(C)C(=O)[C@H](Cc2ccc(O)cc2)NC(=O)CSC[C@@H](C(=O)NCC(N)=O)NC1=O` [Example 11058] ({CH2CO}-Y[NMeA]DPHL[Hyp]WSW[NMeNle][NMeNle]K(Palmitoyl)CG-NH2; thioether N-14) yielded an IC50 [1] of 1930 nM.
In the case of `CCCC1O[C@@H]2C[C@H]3[C@@H]4CCC5=CC(=O)C=C[C@]5(C)[C@H]4[C@@H](O)C[C@]3(C)[C@]2(C(=O)CO)O1` (stereo partly drawn) [budesonide], the bioavailability [2] is listed as “about 10%”.
For `CCCCCCCCCCCCCC(=O)NCCCC[C@@H]1NC(=O)[C@H](CCCC)N(C)C(=O)[C@H](CCCC)N(C)C(=O)[C@H](Cc2c[nH]c3ccccc23)NC(=O)[C@H](CO)NC(=O)[C@H](Cc2c[nH]c3ccccc23)NC(=O)[C@@H]2C[C@@H](O)CN2C(=O)[C@H](CC(C)C)NC(=O)[C@H](Cc2cnc[nH]2)NC(=O)[C@@H]2CCCN2C(=O)[C@H](CC(=O)O)NC(=O)[C@H](C)N(C)C(=O)[C@H](Cc2ccc(O)cc2)NC(=O)CSC[C@@H](C(=O)NCC(N)=O)NC1=O` [Example 11059] ({CH2CO}-Y[NMeA]DPHL[Hyp]WSW[NMeNle][NMeNle]K(Myristoyl)CG-NH2; thioether N-14), the IC50 [1] was 690 nM.

Reference: patent US10988507B2, “Immunomodulators” (Bristol-Myers Squibb Company, priority 2016, dated 2021)
